“Also recorded” adds a separate entry of the source.
Columns and labels:
[1] = system: SARS-CoV-2, Beta variant; design: species or system mice; conditions: mouse, in vivo, ip, 10 mg/kg
[2] = system: SARS-CoV-2, Beta variant; assay type: in vivo; conditions: COVID-19 positive mice; for body weight nonlinear regression, Best fit / body weight as percent of baseline weight over time: 10 mg/kg I.P. BID, 10 day group; for body weight as percent of baseline weight over time: 10 mg/kg

| SMILES | survival outcome [1] | body weight nonlinear regression, Best fit [2] | body weight as percent of baseline weight over time [2] | body weight nonlinear regression, Slope 1 ([2]; Segmental Line fit) | body weight nonlinear regression, Slope2 ([2]; Segmental Line fit) | body weight nonlinear regression, X0 ([2]; Segmental Line fit) |
| --- | --- | --- | --- | --- | --- | --- |
| CC(C(O)c1ccc(O)cc1)N1CCC(Cc2ccccc2)CC1 (stereo not drawn) [ifenprodil] | some protective effect | Segmental Line | appear to reduce observable signs of disease; also recorded: reduction in body weight starting around day 5; also recorded: body weight returned to normal levels by day 10 post-inoculation | -0.8076 | 0.8604 | 6 |
| CC12CC3CC(C)(C1)CC(N)(C3)C2 [memantine] | good survival; also recorded: significantly improved survival outcome | Horizontal Line | appear to reduce observable signs of disease; also recorded: little to no fluctuation in body weight | – | – | – |

Source: US20240350432A1, “CENTRAL NERVOUS SYSTEM MODULATORS AS COVID-19 THERAPEUTICS” (priority 2023, published 2024)
